Data taken from patent US8669260B2, “Ketoconazole-derivative antagonist of human pregnane X receptor and uses thereof” (priority 2008, dated 2014).
Like-named read-outs stand apart in the source and are kept apart here.

Columns and labels:
[1] = system: PXR target genes in SKOV-3 cells; test: Quantitative RT-PCR of PXR target genes in SKOV-3 cells; format: cell-based; settings: 0-1.0 μM
SKOV-3 cells [2] = settings: MTT; 48-96 hr exposure (T1317: 48 hours, normalized to GSK1385)
LXR = settings: known potency; cited from earlier work
SKOV-3 cells [3] = test: Chemotherapeutic sensitivity assay in SKOV-3 cells with and without rifampicin
HepG2 cells = settings: for HepG2 cell proliferation (in words): 48 hours
PXR [4] = molecular target: T1, PXR (Homo sapiens, UniProt O75469); test: PXR transactivation assay (activation mode), HepG2 cells transfected with human PXR-pcDNA3 and CYP3A-Luc; format: cell-based; parameters: expressed in transfected cells; host or cells: HepG2
T1 sequence (O75469 1-434): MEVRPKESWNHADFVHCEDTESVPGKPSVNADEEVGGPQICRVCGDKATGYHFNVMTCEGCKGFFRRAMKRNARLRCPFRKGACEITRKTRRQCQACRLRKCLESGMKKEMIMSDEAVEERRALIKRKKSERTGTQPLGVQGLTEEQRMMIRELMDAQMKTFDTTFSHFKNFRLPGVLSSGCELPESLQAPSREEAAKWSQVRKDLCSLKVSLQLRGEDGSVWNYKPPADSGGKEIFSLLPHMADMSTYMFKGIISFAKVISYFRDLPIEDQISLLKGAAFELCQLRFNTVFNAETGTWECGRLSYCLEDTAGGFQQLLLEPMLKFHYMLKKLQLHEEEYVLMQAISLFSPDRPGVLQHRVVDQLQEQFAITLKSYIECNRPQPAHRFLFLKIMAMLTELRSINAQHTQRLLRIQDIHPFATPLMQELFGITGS

PXR [5] = molecular target: T1, PXR; test: cell-based; parameters: expressed in transfected cells; host or cells: HepG2
[6] = system: Caco-2, LS174T, SKOV3 and CRL cell lines; test: Drug induced cytotoxicity by MTT assay in cancer and fibroblast cell lines
CYP3A4 = CYP3A4 (Homo sapiens, UniProt P08684); test: Time-dependent CYP3A4 inhibition assay in human liver microsome (midazolam 1-hydroxylase); settings: for Maximum % Inhibition, midazolam-1-hydroxylase activity / IC50: human liver microsome; for IC50: read-out: IC50, midazolam-1-hydroxylase activity
Procedure: Briefly, test articles were incubated in a reaction mixture containing 5 μM midazolam, 0.1 mg/ml human liver microsomes and 1 mM NADPH for 5 min. The enzyme reaction was stopped by adding an equal volume of quench solution (H2O:acetonitrileformic-acid=94:5:1) containing ^13C-1-hydroxymdiazolam (0.1 μM final) as the internal standard. In order to test time-dependency of CYP3A4 inhibition, an identical reaction was started without midazolam and the reaction mixture was incubated for 30 min. After the pre-incubation, 5 μM midazolam was added and incubated for 5 min before the quench solution was added. The samples were centrifuged at 1,500 RPM for 15 min to precipitate denatured microsomal proteins. […] A percent CYP3A4 inhibition (% Inh) was calculated by the following equation:
[formula] CDMSO and Ccompound are concentrations of 1-hydroxymidazolam in the vehicle control and a compound tested, respectively. A plot of concentration-% Inh was then created and from the plot, IC50 and Maximum % Inhibition were reported.

SKOV-3 xenografts = test: In vivo SKOV-3 xenograft studies in NOD.SCID mice
Procedure: HepG2 cells were processed into slides using histogel (Richard-Allan Scientific, Kalamazoo, Mich.). The slides were placed in a 59° C. oven in the morning of the experiments. For cells and tissue specimens, after de-waxing and re-hydrating the slides, slides were placed in a sodium citrate solution, pH 6.0 (Vector labs, Burlingame, Calif.) for 20 minutes. […] Cell sections were then immunostained with the biotin-streptavidin system from Vector Labs per manufacturer's instructions. Institutional IRB approval (#2007-902) was obtained for use of tissue sections from patients with serous papillary ovarian carcinoma and benign ovaries.
2×10^6 SKOV-3 cells were implanted by subcutaneous route into both flanks of NOD.SCID mice. On day 35 after inoculation, the mean (±SD) (n=32) volume of implanted tumor was 8 mm^3 (±3.5) (range: 4.3-18.3). […] Control intravenous injections consisted of 30% polyethylene glycol. The tumor volume was calculated twice a week using the following formula: Length (mm)×[Width (mm)]^2×π/6 (25).

PXR [7] = molecular target: T1, PXR; settings: known potency; cited from earlier work
LS174T cells = test: LS174T cell growth (trypan blue counting, doubling time); settings: within 72 hours
[8] = non-linear regression, activation by 10 μM rifampicin, read-out: PXR Inhibition IC50

Sequence of CYP3A4 (P08684 whole entry): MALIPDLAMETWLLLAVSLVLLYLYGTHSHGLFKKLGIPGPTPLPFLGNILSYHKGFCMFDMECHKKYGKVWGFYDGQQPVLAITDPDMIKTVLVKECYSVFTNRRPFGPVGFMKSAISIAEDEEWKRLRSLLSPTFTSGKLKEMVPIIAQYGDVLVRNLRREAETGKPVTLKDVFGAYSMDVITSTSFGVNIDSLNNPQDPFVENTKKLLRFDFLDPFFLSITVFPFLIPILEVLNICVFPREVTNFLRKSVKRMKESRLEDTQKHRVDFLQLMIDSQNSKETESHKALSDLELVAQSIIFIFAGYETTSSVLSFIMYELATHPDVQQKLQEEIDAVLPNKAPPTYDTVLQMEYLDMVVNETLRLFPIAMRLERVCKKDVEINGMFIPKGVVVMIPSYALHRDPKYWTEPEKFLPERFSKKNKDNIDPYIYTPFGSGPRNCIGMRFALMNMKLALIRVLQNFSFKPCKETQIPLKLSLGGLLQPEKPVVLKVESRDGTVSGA

O=S(=O)(c1ccccc1)N(CC(F)(F)F)c1ccc(C(O)(C(F)(F)F)C(F)(F)F)cc1 [T0901317]
PXR target gene induction (in words) [1]: same profile of gene expression | SKOV-3 cell survival (in words) (SKOV-3 cells [2]): significant increase in cell survival | EC50 (LXR): […]

CC(=O)O[C@H]1C(=O)[C@@]2(C)[C@H]([C@H](OC(=O)c3ccccc3)[C@]3(O)C[C@H](OC(=O)[C@H](O)[C@@H](NC(=O)c4ccccc4)c4ccccc4)C(C)=C1C3(C)C)[C@]1(OC(C)=O)CO[C@@H]1C[C@@H]2O [paclitaxel]
IC50 (SKOV-3 cells [3]; Homo sapiens, SK-OV-3, read-out: IC50 with rifampicin (R)): ~40 µM | IC50 (SKOV-3 cells [3]; Homo sapiens, SK-OV-3, read-out: IC50 without rifampicin (no R)): ~4 µM | resistance index induced by rifampicin (SKOV-3 cells [3]; IC50 with rifampicin / IC50 without rifampicin): ~10 fold

CC(=O)N1CCN(c2ccc(OCC3COC(Cn4ccnc4)(c4ccc(Cl)cc4Cl)O3)cc2)CC1 (centres unmarked) [Ketoconazole, ketoconazole]
HepG2 cell proliferation (in words) (HepG2 cells; combination of ketoconazole and rifampicin): cell proliferation is clearly decreased | non-viable cells (HepG2 cells; HepG2, 48 hours, 50 μM): > 35% | EC50 (PXR [4]): > 50 µM | PXR activation (in words) (PXR [4]; PXR transactivation assay): weak activator of PXR | IC50 (PXR [5]): 18.7 µM | inhibition of rifampicin-mediated PXR activation (in words) (PXR [5]): inhibitor of activated PXR | viability ([6]; across all cell lines tested, effective concentration range for PXR inhibition (two times the IC50 ~30 μM), 48 hours): 65-75%

CC(=O)N1CCN(c2ccc(OC[C@H]3CO[C@@](C)(c4ccc(Cl)cc4Cl)O3)cc2)CC1 [UCL2158H]
Maximum % Inhibition, midazolam-1-hydroxylase activity (CYP3A4; +preincubation (30 min)): 67% | time-dependency of CYP3A4 inhibition (CYP3A4; IC50 with vs without 30 min preincubation): no time-dependency | IC50 (CYP3A4; +preincubation (30 min)): 19.6 µM | IC50 (CYP3A4; −preincubation): 10.8 µM | Maximum % Inhibition, midazolam-1-hydroxylase activity (CYP3A4; −preincubation): 80% | Maximum % Activation Observed (PXR [4]; PXR transactivation relative to 10 μM rifampicin, HepG2, 24 h, 50 μM-2.5 nM): 10% | EC50 (PXR [4]; non-linear regression analysis, read-out: PXR Activation EC50): > 50 µM | Maximum % Inhibition Observed (PXR [5]): 109% | inhibition of rifampicin-mediated PXR activation (in words) (PXR [5]; PXR transactivation assay): most potent inhibitors of PXR | IC50 (PXR [5]; [8]): 14.6 µM | PXR Inhibition Imax (PXR [5]; non-linear regression, maximal inhibition of PXR activation with 10 μM rifampicin): 128% | cytotoxicity (in words) ([6]; epithelial cells, concentration range up to 100 μM, MTT): less cytotoxic than ketoconazole

rifampicin
Ki67 stained cells, mean (SEM) (SKOV-3 xenografts; SKOV-3 xenografts, NOD.SCID mice, 40 mg/kg/day i.v., control 577.0 (21), p<0.00001): 937.0 (37) | tumor size at necropsy and tumor weight (in words) (SKOV-3 xenografts; day 60, versus control): significantly larger tumors | tumor volumes (in words) (SKOV-3 xenografts; days 45-60, versus controls): significantly higher | HepG2 cell proliferation (in words) (HepG2 cells; single agent): concentration dependent proliferation of cells | EC50 (PXR [7]): 1 to 2 µM | IC50 (PXR [5]; [8]): > 50 µM | growth rate constant (k=ln 2/g) (LS174T cells; PXR knockdown LS174T cells): ~0.008 hr^−1 | growth rate constant (k=ln 2/g) (LS174T cells; vector-transfected LS174T cells): ~0.02 hr^−1 | effect on cytotoxicity of ixabepilone, paclitaxel and SN-38 (in words) (SKOV-3 cells [3]; SKOV-3 cells, rifampicin 20 μM): significantly decreased the cytotoxicity

C/C(=C\c1csc(C)n1)[C@@H]1C[C@@H]2O[C@]2(C)CCC[C@H](C)[C@H](O)[C@@H](C)C(=O)C(C)(C)[C@@H](O)CC(=O)N1 [ixabepilone]
% increased survival relative to ixabepilone without rifampicin (SKOV-3 cells [3]; SKOV-3, ixabepilone 0.1-50 μM in the presence of rifampicin, average): ~20%

CCc1c2c(nc3ccc(O)cc13)-c1cc3c(c(=O)n1C2)COC(=O)[C@]3(O)CC [SN-38]
resistance index induced by rifampicin (SKOV-3 cells [3]; IC50(R)/IC50 (no R)): ~17.5 | IC50 (SKOV-3 cells [3]; read-out: IC50(R), SKOV-3 cells, with rifampicin): ~3.5 µM | IC50 (SKOV-3 cells [3]; read-out: IC50 (no R), SKOV-3 cells, without rifampicin): ~0.2 µM
